Source: patent publication US7056491B2, “Monoterpenes and sesquiterpenes as chemotherapeutic and radiation sensitizers and immunomodulators” (Wisconsin Alumni Research Foundation, priority 2000, dated 2006)
Like-named read-outs stand apart in the source and are kept apart here.

How the values were obtained:
T98G cells [1] = experiment: Clonogenic survival, POH pretreatment then cisplatin, T98G; assay type: cell-based, human; settings: POH 0.1 mM–0.5 mM 48 hours then cisplatin 0.05 uM–1 uM 48 hours
Description: (§1) Referring to FIG. 28, subconfluent cells of T98G cells were treated with varying concentrations of perillyl alcohol (0.1 mM–0.5 mM) for 48 hours and subsequently treated with the indicated dose of cisplatin (0.05 uM–1 uM) for 48 hours. At the end of the treatment, POH pretreated and untreated cells in the presence and absence of cisplatin, were harvested, washed with PBS, plated at the desired cell number and incubated for two weeks. The colonies were stained with crystal violet and quantitated. Survival was determined as the ratio of plating efficiencies for each irradiated group to that of the untreated control.

[2] = tested on: Fas-sensitive Jurkat cell line; experiment: Cell death of Jurkat cells incubated with POH-treated T98G; assay type: cell-based; settings: T98G treated 0.1 mM–0.5 mM 48 hours, then Jurkat 48 hours
Description: Referring to FIG. 27, subconfluent cells of T98G cells were treated with varying concentrations of perillyl alcohol (0.1 mM–0.5 mM) for 48 hours. At the end of the incubation the media was changed, cells from a Fas-sensitive Jurkat cell line were added to the plate, and the incubation was continued further for 48 hours. At the end of the incubation the target cells (Jurkat) were harvested, washed and the cell viability was assessed.

[3] = tested on: DU145 prostate cancer cells; experiment: Clonogenic survival assay, POH with or without radiation, DU145; assay type: cell-based, human
Description: (§2) Subconfluent cultures of prostate cancer cell line DU145 were treated with 0.1–0.5 mM of POH for 72 hours and subsequently to increasing doses of radiation from 0.1 Gy to 8.5 Gy. Control cells were treated with the indicated doses of radiation alone. The cells were harvested and an optimum number of cells were allowed to grow for 14 days. The resulting colonies were stained and counted. Each graphed point represents mean values ± SE values of triplicate dishes.
(§3) Table 1 summarizing data from different cell lines treated with radiation, radiation plus POH, and POH alone. Subconfluent cultures of human glioma (T98G, M059K, U251), prostate (DU145, PC3), colon (DLD-1, HT29) and pancreatic (MIAPACA) cancer cell lines were treated with 0.1–0.5 mM of POH for 72 hours and subsequently to increasing doses of radiation from 0.1 Gy to 8.5 Gy. Control cells were treated with medium alone. The cells were harvested and an optimum number of cells were allowed to grow for 14 days. The resulting colonies were stained and counted. Each graphed point represents mean values ± SE values of triplicate dishes. Percentage survival was determined as the ratio of plating efficiencies for each irradiated group to that of the unirradiated control.

T98G cells [4] = experiment: Clonogenic survival, POH pretreatment then doxorubicin, T98G; assay type: cell-based, human; settings: POH 0.1 mM–0.5 mM 48 hours then doxorubicin 0.01 uM–0.1 uM 48 hours
Description: as §1, with “29,” for “28,”, “doxorubicin (0.01 uM–0.1” for “cisplatin (0.05 uM–1”, “POH-pretreated” for “POH pretreated”, “doxorubicin,” for “cisplatin,”, “control. […] Doxorubicin at concentrations over 0.1 uM appeared to be toxic to the cells.” for “control.”

rat mammary carcinoma = settings: cited from earlier work; for regression of rat mammary carcinoma: dietary administration
[5] = tested on: PC3 prostate cancer cells; experiment: Clonogenic survival assay, POH with or without radiation, PC3; assay type: cell-based, human
Description: as §2, with “FIGS. 2–14 illustrates additional work with other monoterpenes and cell lines. […] Subconfluent” for “Subconfluent”, “cultures” for “cultures of”, “PC3” for “DU145”, “growth” for “grow”
as §3

T98G cells [6] = experiment: Clonogenic survival assay, POH with or without radiation, T98G; assay type: cell-based, human
Text: Cell Line: The T98G cell line was derived from a resection specimen obtained from a patient with glioblastoma multiforme. T98G cells express endogenous mutant p53 and introduction of wild-type p53 sensitizes these cells to radiation. The radioresistance of this cell line has also been attributed to the presence of high intracellular levels of GSH, which down-regulates NFκB binding activity after exposure to ionizing radiation. A clonogenic survival assay was used to assess the response to treatment in vitro, as it is a measure of reproductive capacity.
Clonogenic Survival Assays: The T98G cell line was obtained from ATCC and maintained in DMEM-F12 medium containing 10% fetal bovine serum, 1% penicillin, streptomycin and 1 mM non-essential amino acids in a humidified incubator at 37° C. Stock solution of POH was made in the medium. One set of plates was treated with graded doses of POH (0.1 mM to 1 mM) for a period of 72 hours. Control dishes were treated with medium alone. All cells were irradiated at a dose rate of 7.5Gy/min using a CS-137 irradiator with single doses ranging from 1 Gy to 8.5Gy. The range of radiation doses used encompasses that used to treat patients.
Following irradiation, both POH treated and untreated cells were harvested by trypsinization and washed with PBS. Cells were incubated for two weeks after initial plating, fixed with methanol, stained with crystal violet and the number of colonies per dish quantitated. Survival was determined as the ratio of plating efficiencies for each irradiated group to that of the unirradiated control.
as §2, with “human glioma” for “prostate cancer”, “T98G” for “DU145”, “Perillyl Alcohol” for “POH”, “medium” for “the indicated doses of radiation”
as §3

HT29 colon cancer cells = experiment: Clonogenic survival assay, POH with or without radiation, HT29; assay type: cell-based, human
Description: as §3

[7] = tested on: 21–26 kD proteins, including small GTP-binding proteins; settings: dose dependent, distal to HMG-CoA reductase; cited from earlier work

C=C(C)[C@@H]1CC=C(CO)CC1 [POH, Perillyl alcohol]
sensitization to cisplatin-induced cell death (T98G cells [1]): dose-dependent sensitization | function of Fas Ligand on treated T98G towards Jurkat cells [2]: brought about cell death | % SURVIVAL ([3]; 0.1 mM POH 72 h, no radiation): 0.648 ± 0.008% | % SURVIVAL ([3]; 0.1 mM POH + 5.5 Gy): 0.044 ± 0.00157% | % SURVIVAL ([3]; 0.3 mM POH 72 h, no radiation): 0.456 ± 0.0112% | % SURVIVAL ([3]; 0.3 mM POH + 5.5 Gy): 0.026 ± 0.00076% | % SURVIVAL ([3]; 0.5 mM POH 72 h, no radiation): 0.207 ± 0.005% | % SURVIVAL ([3]; 0.5 mM POH + 5.5 Gy): 0.017 ± 0.005% | sensitization to doxorubicin-induced cell death (T98G cells [4]): dose-dependent sensitization | potency at inducing tumor regression relative to limonene (rat mammary carcinoma; dietary): greater than five times more potent than limonene | regression of rat mammary carcinoma (rat mammary carcinoma; induced by DMBA): 84% | regression of rat mammary carcinoma (rat mammary carcinoma; induced by NMU): 60% | % SURVIVAL ([5]; 0.1 mM POH 72 h, no radiation): 0.734 ± 0.038% | % SURVIVAL ([5]; 0.1 mM POH + 5.5 Gy): 0.007 ± 0.0009% | % SURVIVAL ([5]; 0.3 mM POH 72 h, no radiation): 0.366 ± 0.017% | % SURVIVAL ([5]; 0.3 mM POH + 5.5 Gy): 0.003 ± 0.0058% | % SURVIVAL ([5]; 0.5 mM POH 72 h, no radiation): 0.244 ± 0.009% | % SURVIVAL ([5]; 0.5 mM POH + 5.5 Gy): 0.001 ± 0.00067% | concentration with the most pronounced radiosensitization (T98G cells [6]): 0.5 mM | lowest concentration at which radiosensitization was observed (T98G cells [6]): 0.1 mM | % SURVIVAL (T98G cells [6]; 0.1 mM POH 72 h, no radiation): 0.755 ± 0.016% | % SURVIVAL (T98G cells [6]; 0.1 mM POH + 5.5 Gy): 0.130 ± 0.002% | % SURVIVAL (T98G cells [6]; 0.3 mM POH 72 h, no radiation): 0.660 ± 0.024% | % SURVIVAL (T98G cells [6]; 0.3 mM POH + 5.5 Gy): 0.066 ± 0.004% | % SURVIVAL (T98G cells [6]; 0.5 mM POH 72 h, no radiation): 0.500 ± 0.006% | % SURVIVAL (T98G cells [6]; 0.5 mM POH + 5.5 Gy): 0.037 ± 0.014% | sensitization to radiation induced cell death (T98G cells [6]; pretreatment before and during irradiation): dose dependent sensitization | % SURVIVAL (HT29 colon cancer cells; 0.1 mM POH 72 h, no radiation): 1.060 ± 0.090% | % SURVIVAL (HT29 colon cancer cells; 0.1 mM POH + 5.5 Gy): 0.050 ± 0.005% | % SURVIVAL (HT29 colon cancer cells; 0.3 mM POH 72 h, no radiation): 0.714 ± 0.030% | % SURVIVAL (HT29 colon cancer cells; 0.3 mM POH + 5.5 Gy): 0.034 ± 0.003% | % SURVIVAL (HT29 colon cancer cells; 0.5 mM POH 72 h, no radiation): 0.400 ± 0.010% | % SURVIVAL (HT29 colon cancer cells; 0.5 mM POH + 5.5 Gy): 0.006 ± 0.002% | isoprenylation of 21–26 kD proteins [7]: inhibit isoprenylation
